The numbers were not newly measured in PubChem BioAssay AID1259410 (Chemical Carcinogenesis Research Information System (CCRIS), 2018), which cites them from elsewhere.

Molecules are shown by their SMILES.

In the data set the test system is rodent tumor promotion studies, tumor incidence. Description: CCRIS tumor promotion studies.

With `CCCCC(CC)COC(=O)c1ccccc1C(=O)OCC(CC)CCCC` (centres undefined), the outcome (Carcinogen: DIETHYLNITROSAMINE [55-18-5], Doses [Carcinogen]: 200 MG/KG BW ONCE (STUDY DURATION: 48 WK), Doses [Promoter]: 0, 30, 300, 3000, 12000 PPM IN DIET FOR 46 WK BEGINNING 2 WK POST CARCINOGEN DOSE AND 1 WK PRIOR TO 2/3 PARTIAL HEPATECT, Doses [Promoter]: 0, 30, 300, 3000, 12000 PPM IN DIET FOR 46 WK BEGINNING 2 WK POST CARCINOGEN DOSE AND 1 WK PRIOR TO 2/3 PARTIAL HEPATECT, Route [Carcinogen]: INTRAPERITONEAL, Route [Promoter]: ORAL, Species: RAT, Strain/Sex: F344/MALE) was “liver: hepatocellular adenoma”; the outcome (Carcinogen: DIETHYLNITROSAMINE [55-18-5], Doses [Carcinogen]: 200 MG/KG BW ONCE (STUDY DURATION: 52 WK), Doses [Promoter]: 0, 30, 300, 3000, 12000 PPM IN DIET FOR 46 WK BEGINNING 2 WK POST CARCINOGEN DOSE AND 1 WK PRIOR TO 2/3 PARTIAL HEPATECT, Doses [Promoter]: 0, 30, 300, 3000, 12000 PPM IN DIET FOR 46 WK BEGINNING 2 WK POST CARCINOGEN DOSE AND 1 WK PRIOR TO 2/3 PARTIAL HEPATECT, Route [Carcinogen]: INTRAPERITONEAL, Route [Promoter]: ORAL, Species: RAT, Strain/Sex: F344/MALE) is given as “liver: hepatocellular adenoma or carcinoma”; the outcome (Carcinogen: N-ETHYL-N-HYDROXYETHYLNITROSAMINE, 13147-25-6, Doses [Carcinogen]: 0.05% IN DRINKING WATER FOR 2 WK, Doses [Promoter]: 0, 1.2% IN DIET FOR 24 WK POST CARCINOGEN DOSE (STUDY DURATION: 27 WK), Route [Carcinogen]: ORAL, Species: RAT, Strain/Sex: F344/MALE) is listed as “kidney: renal cell tumor”; the outcome (Carcinogen: N-NITROSODIETHYLAMINE, 55-18-5, Doses [Carcinogen]: 5 UG/G BW ONCE AT 15 D OF AGE, Doses [Promoter]: 0, 12000 PPM IN DIET BEGINNING AT 4 WK OF AGE AND CONTINUING FOR DURATION OF STUDY (STUDY DURATION: 28 WK), Route [Carcinogen]: INTRAPERITONEAL, Route [Promoter]: ORAL, Species: MOUSE, Strain/Sex: C3H/HENCR/FEMALE) is “liver: hepatocellular adenoma”; the outcome (Carcinogen: N-NITROSODIETHYLAMINE, 55-18-5, Doses [Carcinogen]: 5 UG/G BW ONCE AT 15 D OF AGE, Doses [Promoter]: 0, 12000 PPM IN DIET BEGINNING AT 4 WK OF AGE AND CONTINUING FOR DURATION OF STUDY (STUDY DURATION: 28 WK), Route [Carcinogen]: INTRAPERITONEAL, Route [Promoter]: ORAL, Species: MOUSE, Strain/Sex: C3H/HENCR/MALE) is “liver: hepatocellular adenoma”; the outcome (Carcinogen: N-NITROSODIETHYLAMINE, 7119-92-8, Doses [Carcinogen]: 80 MG/KG ONCE, Doses [Promoter]: 0, 3000 PPM IN DIET BEGINNING 1 WK POST CARCINOGEN DOSE AND CONTINUING FOR 168 D (STUDY DURATION: 259 D), Route [Carcinogen]: INTRAPERITONEAL, Route [Promoter]: ORAL, Species: MOUSE, Strain/Sex: B6C3F1/MALE) is “liver: hepatocellular adenoma”.
In the case of `CCCCCCCCCCCC(=O)OCCOC[C@@H](OCCO)[C@H]1OC[C@@H](OCCO)[C@H]1OCCO`, the outcome (Carcinogen: 7,12-DIMETHYLBENZ(A)ANTHRACENE, Doses [Carcinogen]: TOP, Route [Carcinogen]: DERMAL, Route [Promoter]: DERMAL, Species: MOUSE, Strain/Sex: MALE) is on record as “integumentary system (skin)”.
Regarding `CC/C=C/C=C/C=C/C=C/C=C/OC[C@@H](O)CO`, where the note is “Carcinogen: N-METHYL-N-NITROSOUREA, 684-93-5, Doses [Carcinogen]: 2 NG IN 0.5 ML WATER 3/WK FOR 3 WK, Doses [Promoter]: 0, 400 NG IN 0.5 ML BUFFER 2/WK FOR 24 WK BEGINNING 5 WK POST CARCINOGEN TREATMENT (STUDY DURATION: 32 WK), Route [Carcinogen]: INTRARECTAL, Route [Promoter]: INTRARECTAL, Species: RAT, Strain/Sex: F344/FEMALE”, the outcome is recorded as “colon: carcinoma”.
For `C1CCCCC1`, the outcome (Carcinogen: DIMETHYLBENZ[A]ANTHRACENE, 57-97-6, Doses [Carcinogen]: 0.2 UMOL (51.2 UG) IN O.2 ML ACETONE ONCE, Doses [Promoter]: 0, 100 µL 3/WK ADMINISTERED 7 D POST CARCINOGEN DOSE AND CONTINUING FOR DURATION OF STUDY (STUDY DURATION: 1 YR), Route [Carcinogen]: DERMAL, Route [Promoter]: DERMAL, Species: MOUSE, Strain/Sex: SWISS/FEMALE) is reported as “skin: tumor, squamous cell papilloma, keratoacanthoma”.
For `O=c1[nH]cnc2[nH]ncc12`, where the note is “Carcinogen: N-(4-(5-NITRO-2-FURYL)-2-THIAZOLYL)FORMAMIDE, Doses [Carcinogen]: DIET, Doses [Promoter]: IN DIET, Route [Carcinogen]: ORAL, Route [Promoter]: ORAL, Species: RAT, Strain/Sex: FEMALE”, the outcome is “urinary bladder”.
As to `ClC1C(Cl)C(Cl)C(Cl)C(Cl)C1Cl` (centres undefined), under “Carcinogen: DIETHYLNITROSAMINE, 55-18-5, Doses [Carcinogen]: 5 UG/G BW IN 0.1 ML SALINE ONCE AT 15 D OF AGE, Doses [Promoter]: 0, 250 PPM IN DIET FOR 24 WK BEGINNING AT 28 D OF AGE (STUDY DURATION: 26 WK), Route [Carcinogen]: INTRAPERITONEAL, Route [Promoter]: ORAL, Species: MOUSE, Strain/Sex: B6C3F1/FEMALE”, the outcome is reported as “liver: adenoma”.
`Oc1ccc(Cl)cc1`: the outcome (Carcinogen: 7,12-DIMETHYLBENZ(A)ANTHRACENE, Doses [Carcinogen]: TOP, Route [Carcinogen]: DERMAL, Route [Promoter]: DERMAL, Species: MOUSE, Strain/Sex: FEMALE) is listed as “integumentary system (skin)”.
As to `CC(C)C[C@H](NC(=O)[C@H](Cc1ccccc1)NC(=O)CNC(=O)CNC(=O)[C@@H](N)Cc1ccc(O)cc1)C(=O)O`, the outcome (Carcinogen: N-METHYL-N'-NITRO-N-NITROSOGUANIDINE, 70-25-7, Doses [Carcinogen]: 25 UG/ML IN DRINKING WATER FOR 25 WK, Doses [Promoter]: 0, 20 UG/KG 1/2 D BEGINNING POST CARCINOGEN TREATMENT AND CONTINUING FOR THE DURATION OF STUDY (STUDY DURATION: 52 WK), Route [Carcinogen]: ORAL, Route [Promoter]: SUBCUTANEOUS, Species: RAT, Strain/Sex: WISTAR/MALE) was “stomach: adenocarcinoma”.
Take `CC[C@H](C)[C@H](NC(=O)[C@H](Cc1cnc[nH]1)NC(=O)[C@H](CCSC)NC(=O)[C@H](CS)NC(=O)[C@@H](NC(=O)CNC(=O)CNC(=O)[C@H](CC(N)=O)NC(=O)[C@H](CC(C)C)NC(=O)[C@H](CS)NC(=O)[C@H](Cc1ccc(O)cc1)NC(=O)CNC(=O)[C@H](CC(=O)O)NC(=O)[C@H](Cc1ccc(O)cc1)NC(=O)[C@H](CO)NC(=O)[C@H](CO)NC(=O)[C@@H]1CCCN1C(=O)[C@H](CS)NC(=O)CNC(=O)[C@@H]1CCCN1C(=O)[C@H](Cc1ccc(O)cc1)NC(=O)[C@H](CO)NC(=O)[C@@H](N)CC(N)=O)C(C)C)C(=O)N[C@@H](CCC(=O)O)C(=O)N[C@@H](CO)C(=O)N[C@@H](CC(C)C)C(=O)N[C@@H](CC(=O)O)C(=O)N[C@@H](CO)C(=O)N[C@@H](Cc1ccc(O)cc1)C(=O)N[C@H](C(=O)N[C@@H](CS)C(=O)N[C@@H](CC(N)=O)C(=O)N[C@@H](CS)C(=O)N[C@H](C(=O)N[C@H](C(=O)NCC(=O)N[C@@H](Cc1ccc(O)cc1)C(=O)N[C@@H](CO)C(=O)NCC(=O)N[C@@H](CC(=O)O)C(=O)N[C@@H](CCCNC(=N)N)C(=O)N[C@@H](CS)C(=O)N[C@@H](CCC(N)=O)C(=O)N[C@H](C(=O)N[C@@H](CCCNC(=N)N)C(=O)N[C@@H](CC(=O)O)C(=O)N[C@@H](CC(C)C)C(=O)N[C@@H](CCCNC(=N)N)C(=O)N[C@@H](Cc1c[nH]c2ccccc12)C(=O)N[C@@H](Cc1c[nH]c2ccccc12)C(=O)N[C@@H](CCC(=O)O)C(=O)N[C@@H](CC(C)C)C(=O)N[C@@H](CCCNC(=N)N)C(=O)O)[C@@H](C)O)[C@@H](C)CC)C(C)C)[C@@H](C)O`: the outcome (Carcinogen: 7,12-DIMETHYLBENZ[A]ANTHRACENE, 57-97-6, Doses [Carcinogen]: 0.5% IN ACETONE/HEAVY MINERAL OIL APPLIED TO BOTH CHEEK POUCHES 3/WK FOR 6 WK, Doses [Promoter]: 0, 10 UG/KG BW 3/WK FOR 6 WK BEGINNING 1 WK POST A SIALOADENECTOMY OR SHAM OPERATION AND 2 WK POST CARCINOGEN TREATMENT, Route [Carcinogen]: MUCOUS MEMBRANE, Route [Promoter]: MUCOUS MEMBRANE, Species: HAMSTER, Strain/Sex: SYRIAN/MALE) is recorded as “cheek pouch: tumor; forestomach: tumor”.
